Measurements: the supplement of paper PMC4862054

Tests used:
Conditions in all cases: incubation time: 72 h
[1] = system: CAL-148; assay: normalised viability (% of control), CellTiter-Blue; higher = more viable cells (about 100 = DMSO control)
Procedure: (§1)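 DSRT, CellTiter-Blue viability, 72 h incubation. Signal is normalised to DMSO and benzethonium chloride controls. Value is the normalised response at dose 6.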

[2] = system: CAL-51; assay: as above
Procedure: as §1

[3] = system: CAL-85-1; assay: as above
Procedure: as §1

[4] = system: DU-4475; assay: as above
Procedure: as §1

[5] = system: HDQ-P1; assay: as above
Procedure: as §1

[6] = system: MDA-MB-453; assay: as above
Procedure: as §1

[7] = system: BT-474; assay: normalised response (% of control), CellTox Green; higher = less cell death (100 = DMSO, 0 = benzethonium chloride kill control)
Method in brief: (§2)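 Plates were normalised with 0.1 % DMSO as 100 and a positive kill control as 0. Breast cancer cell lines in 20 µl suspension had been seeded into 384-well plates with compound at 5 concentrations in 10-fold steps over a compound-specific 10,000-fold range, incubated 72 h, and read for CellTox Green fluorescence (485/520 nm) followed by CellTiter-Glo luminescence. Each value is the normalised signal at a single concentration.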

[8] = system: BT-549; assay: as above
Method in brief: as §2

[9] = system: CAL-120; assay: as above
Method in brief: as §2

[10] = system: CAL-148; assay: as above
Method in brief: as §2

[11] = system: CAL-51; assay: as above
Method in brief: as §2

[12] = system: CAL-85-1; assay: as above
Method in brief: as §2

[13] = system: DU-4475; assay: as above
Method in brief: as §2

[14] = system: HCC1143; assay: as above
Method in brief: as §2

[15] = system: HCC1599; assay: as above
Method in brief: as §2

[16] = system: HCC1937; assay: as above
Method in brief: as §2

[17] = system: HDQ-P1; assay: as above
Method in brief: as §2

[18] = system: Hs578T; assay: as above
Method in brief: as §2

[19] = system: MCF-10A; assay: as above
Method in brief: as §2

[20] = system: MDA-MB-231; assay: as above
Method in brief: as §2

[21] = system: MDA-MB-436; assay: as above
Method in brief: as §2

[22] = system: MDA-MB-453; assay: as above
Method in brief: as §2

[23] = system: MDA-MB-468; assay: as above
Method in brief: as §2

[24] = system: MFM-223; assay: as above
Method in brief: as §2

[25] = system: BT-474; assay: normalised response (% of control), CellTiter-Glo; higher = more viable cells (100 = DMSO, 0 = benzethonium chloride kill control)
Procedure: (§3)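 DSRT, 72 h incubation, CellTox Green / CellTiter-Glo readout. Signal is normalised to DMSO and benzethonium chloride controls. Value is the normalised response at the highest dose.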

[26] = system: BT-549; assay: as above
Procedure: as §3

[27] = system: CAL-120; assay: as above
Procedure: as §3

[28] = system: CAL-148; assay: as above
Procedure: as §3

[29] = system: CAL-51; assay: as above
Procedure: as §3

[30] = system: CAL-85-1; assay: as above
Procedure: as §3

[31] = system: DU-4475; assay: as above
Procedure: as §3

[32] = system: HCC1143; assay: as above
Procedure: as §3

[33] = system: HCC1599; assay: as above
Procedure: as §3

[34] = system: HCC1937; assay: as above
Procedure: as §3

[35] = system: HDQ-P1; assay: as above
Procedure: as §3

[36] = system: Hs578T; assay: as above
Procedure: as §3

[37] = system: MCF-10A; assay: as above
Procedure: as §3

[38] = system: MDA-MB-231; assay: as above
Procedure: as §3

[39] = system: MDA-MB-436; assay: as above
Procedure: as §3

[40] = system: MDA-MB-453; assay: as above
Procedure: as §3

[41] = system: MDA-MB-468; assay: as above
Procedure: as §3

[42] = system: MFM-223; assay: as above
Procedure: as §3

[43] = system: SK-BR-3; assay: as above
Procedure: as §3

## Cc1ccc(C(=O)N(CCCN)[C@@H](c2oc3cc(Cl)ccc3c(=O)c2Cc2ccccc2)C(C)C)cc1 (30 nM)
[1]
  normalised viability: 18.3%
[2]
  normalised viability: 26.8%
[3]
  normalised viability: 33.3%
[4]
  normalised viability: 24.3%
[5]
  normalised viability: 74%
[6]
  normalised viability: 24.8%

## NC(=O)Nc1cc(-c2cccc(F)c2)sc1C(=O)N[C@H]1CCCNC1 [AZD 7762] (30 nM)
[1]
  normalised viability: 93.7%
[2]
  normalised viability: 103%
[3]
  normalised viability: 99.5%
[4]
  normalised viability: 99.8%
[5]
  normalised viability: 93.9%
[6]
  normalised viability: 110%

## CO[C@H]1/C=C\C=C(/C)C(=O)NC2=CC(=O)C(NCCN(C)C)=C(C[C@@H](C)C[C@H](OC)[C@H](O)[C@@H](C)/C=C(\C)[C@@H]1OC(N)=O)C2=O [Alvespimycin] (30 nM)
[1]
  normalised viability: 48%
[2]
  normalised viability: 63.5%
[3]
  normalised viability: 62.8%
[4]
  normalised viability: 1.87%
[5]
  normalised viability: 44.2%
[6]
  normalised viability: 7.17%

## CCC1(c2ccc(N)cc2)CCC(=O)NC1=O (configuration not stated) [Aminoglutethimide] (300 nM)
[1]
  normalised viability: 104%
[2]
  normalised viability: 84.8%
[3]
  normalised viability: 92.9%
[4]
  normalised viability: 93.4%
[5]
  normalised viability: 72.9%
[6]
  normalised viability: 89.6%

## NCC(=O)CCC(=O)O [Aminolevulinic acid] (300 nM)
[1]
  normalised viability: 113%
[2]
  normalised viability: 102%
[3]
  normalised viability: 91.4%
[4]
  normalised viability: 91.8%
[5]
  normalised viability: 90%
[6]
  normalised viability: 117%

## CCN(CCCOc1ccc2c(Nc3cc(CC(=O)Nc4cccc(F)c4)[nH]n3)ncnc2c1)CCOP(=O)(O)O [Barasertib] (30 nM)
[1]
  normalised viability: 23.7%
[2]
  normalised viability: 72%
[3]
  normalised viability: 77.7%
[4]
  normalised viability: 85.7%
[5]
  normalised viability: 46%
[6]
  normalised viability: 67.6%

## Cn1c(CCCC(=O)O)nc2cc(N(CCCl)CCCl)ccc21 [Bendamustine] (300 nM)
[1]
  normalised viability: 114%
[2]
  normalised viability: 107%
[3]
  normalised viability: 94.6%
[4]
  normalised viability: 108%
[5]
  normalised viability: 61%
[6]
  normalised viability: 96.8%

## C=C(c1ccc(C(=O)O)cc1)c1cc2c(cc1C)C(C)(C)CCC2(C)C [Bexarotene] (300 nM)
[1]
  normalised viability: 92.8%
[2]
  normalised viability: 92.8%
[3]
  normalised viability: 89.8%
[4]
  normalised viability: 116%
[5]
  normalised viability: 54.5%
[6]
  normalised viability: 71.4%

## CC(=O)Nc1ccc(C(=O)Nc2ccccc2N)cc1 [CI-994] (30 nM)
[1]
  normalised viability: 92.8%
[2]
  normalised viability: 98.3%
[3]
  normalised viability: 104%
[4]
  normalised viability: 85.6%
[5]
  normalised viability: 100%
[6]
  normalised viability: 102%

## COc1cc2nccc(Oc3ccc(NC(=O)C4(C(=O)Nc5ccc(F)cc5)CC4)cc3)c2cc1OC [Cabozantinib] (30 nM)
[1]
  normalised viability: 111%
[2]
  normalised viability: 102%
[3]
  normalised viability: 85.5%
[4]
  normalised viability: 96.1%
[5]
  normalised viability: 62.5%
[6]
  normalised viability: 96.5%

## N.N.[Cl][Pt][Cl] [Cisplatin] (300 nM)
[1]
  normalised viability: 104%
[2]
  normalised viability: 108%
[3]
  normalised viability: 99.5%
[4]
  normalised viability: 93.6%
[5]
  normalised viability: 78.9%
[6]
  normalised viability: 107%

## C[C@@H](Oc1cc(-c2cnn(C3CCNCC3)c2)cnc1N)c1c(Cl)ccc(F)c1Cl [Crizotinib] (300 nM)
[1]
  normalised viability: 101%
[2]
  normalised viability: 99.7%
[3]
  normalised viability: 92%
[4]
  normalised viability: 112%
[5]
  normalised viability: 36.5%
[6]
  normalised viability: 71.1%

## CN(C)/N=N/c1[nH]cnc1C(N)=O [Dacarbazine] (300 nM)
[1]
  normalised viability: 84.3%
[2]
  normalised viability: 89.4%
[3]
  normalised viability: 93.4%
[4]
  normalised viability: 92.7%
[5]
  normalised viability: 88.8%
[6]
  normalised viability: 89%

## Cc1ccc(-n2nc(C(C)(C)C)cc2NC(=O)Nc2ccc(OCCN3CCOCC3)c3ccccc23)cc1 [Doramapimod] (300 nM)
[1]
  normalised viability: 91.3%
[2]
  normalised viability: 107%
[3]
  normalised viability: 81.1%
[4]
  normalised viability: 96.3%
[5]
  normalised viability: 38%
[6]
  normalised viability: 105%

## C#Cc1cccc(Nc2ncnc3cc(OCCOC)c(OCCOC)cc23)c1 [Erlotinib] (300 nM)
[1]
  normalised viability: 86.1%
[2]
  normalised viability: 96.4%
[3]
  normalised viability: 73.3%
[4]
  normalised viability: 114%
[5]
  normalised viability: 63.8%
[6]
  normalised viability: 86.1%

## COc1cc([C@@H]2c3cc4c(cc3[C@@H](O[C@@H]3O[C@@H]5CO[C@@H](C)O[C@H]5[C@H](O)[C@H]3O)[C@H]3COC(=O)[C@H]23)OCO4)cc(OC)c1O [Etoposide] (300 nM)
[1]
  normalised viability: 59.4%
[2]
  normalised viability: 59%
[3]
  normalised viability: 98.9%
[4]
  normalised viability: 45.6%
[5]
  normalised viability: 77.3%
[6]
  normalised viability: 104%

## C[C@]12CC[C@@H]3c4ccc(O)cc4C[C@@H](CCCCCCCCC[S+]([O-])CCCC(F)(F)C(F)(F)F)[C@H]3[C@@H]1CC[C@@H]2O (some centres not stated) [Fulvestrant] (300 nM)
[1]
  normalised viability: 102%
[2]
  normalised viability: 111%
[3]
  normalised viability: 87.8%
[4]
  normalised viability: 92.7%
[5]
  normalised viability: 74.7%
[6]
  normalised viability: 98.8%

## O=P1(NCCCl)OCCCN1CCCl (configuration not stated) [Ifosfamide] (300 nM)
[1]
  normalised viability: 109%
[2]
  normalised viability: 108%
[3]
  normalised viability: 97.1%
[4]
  normalised viability: 78.1%
[5]
  normalised viability: 85.1%
[6]
  normalised viability: 110%

## CC(C)Cn1cnc2c(N)nc3ccccc3c21 [Imiquimod] (300 nM)
[1]
  normalised viability: 96.5%
[2]
  normalised viability: 97.5%
[3]
  normalised viability: 102%
[4]
  normalised viability: 80.5%
[5]
  normalised viability: 75.3%
[6]
  normalised viability: 103%

## CC1(C)NC(=O)N(c2ccc([N+](=O)[O-])c(C(F)(F)F)c2)C1=O [Nilutamide] (300 nM)
[1]
  normalised viability: 98%
[2]
  normalised viability: 102%
[3]
  normalised viability: 104%
[4]
  normalised viability: 106%
[5]
  normalised viability: 125%
[6]
  normalised viability: 113%

## O=C(CCCCCCC(=O)Nc1ccc([C@H]2O[C@@H](CSc3nc(-c4ccccc4)c(-c4ccccc4)o3)C[C@@H](c3ccc(CO)cc3)O2)cc1)NO [Tubacin] (10000 nM)
[7]
  normalised response: 73.7%
[8]
  normalised response: 71.7%
[9]
  normalised response: 75.1%
[10]
  normalised response: 81.1%
[11]
  normalised response: 53.8%
[12]
  normalised response: -3.19%
[13]
  normalised response: 92.1%
[14]
  normalised response: 27.7%
[15]
  normalised response: 95.2%
[16]
  normalised response: 54.5%
[17]
  normalised response: 102%
[18]
  normalised response: 85.2%
[19]
  normalised response: 110%
[20]
  normalised response: -21.5%
[21]
  normalised response: 89.9%
[22]
  normalised response: 39%
[23]
  normalised response: 98.2%
[24]
  normalised response: 81.7%
[25]
  normalised response: 13.9%
[26]
  normalised response: 42%
[27]
  normalised response: 51.8%
[28]
  normalised response: 73.5%
[29]
  normalised response: 35.4%
[30]
  normalised response: 18.4%
[31]
  normalised response: 70.7%
[32]
  normalised response: 37.1%
[33]
  normalised response: 13.7%
[34]
  normalised response: 32.3%
[35]
  normalised response: 68.6%
[36]
  normalised response: 51.4%
[37]
  normalised response: 52.4%
[38]
  normalised response: 8.62%
[39]
  normalised response: 57.5%
[40]
  normalised response: 6.07%
[41]
  normalised response: 17.2%
[42]
  normalised response: 38.2%
[43]
  normalised response: 45.4%
